Entries after “also recorded” stand apart in the source; their conditions may differ.
Key:
STAT5 [1] = assay: STAT5 luciferase reporter assay of small-molecule inducible Epo receptors in HEK293T cells (Example 2); type: cell-based; settings: AP1903 added vs no ligand, FIG. 4
Source text: According to the construct name, receptors contain a membrane-targeting motif (CD8 signal sequence (CD8 SS) or myristoyl), a dimerization domain (FKBP(F36V) or mutants thereof), a portion of the EpoR that contains a transmembrane (EpoR(237-272)), a JAK2 binding motif (EpoR(273-338)), and/or a tyrosine effector domain (EpoR(339-508)). Constructs may also include epitope tags (Myc or V5) for western blot or flow analyses.
Vectors encoding the inducible chimeric cytokine receptors were transfected into HEK293T cells along with a luciferase reporter for the STAT5 transcription factor (Promega E4651). The reporter vector consists of a firefly luficerase expressed under the control of a STAT5 responsive DNA element. Upon addition of erythropoietin (Epo), the erythropoietin receptor (EpoR) activates the JAK2 kinase which then phosphorylates tyrosines on the EpoR cytotail to generate binding sites for STAT5. […] Epo was added to samples with cells transfected with EpoR, and AP1903 was added to the samples with cells transfected with fusions of the EpoR to FKBP. No Epo or AP1903 was added to samples to assess baseline signaling. In FIG. 4, “ligand” is either Epo or AP1903.

STAT4 = STAT4 luciferase reporter assay comparing tyrosine kinase activating domains in HEK293 cells co-transfected with STAT4 (Example 5A); type: cell-based; settings: for basal signaling: without ligand
Source text: For this study, several tyrosine kinase activating domains were compared using a otherwise identical inducible cytokine receptor design. The tyrosine effector domain consists of a STAT5-activating sequence from IL7R fused to a STAT4-activating sequence from IL12Rb2. Each construct contains a membrane-targeting motif (CD8 SS), a dimerization domain (FKBP(F36V)), a tyrosine kinase activating domain derived from either the EpoR, GP130, PrIR, GHR, GCSFR, or TPOR/MPLR receptors, and a tyrosine effector domain consisting of the IL7R(316-459) cytotail fused to the IL12Rb2(775-825) peptide. Chimeric cytokine receptors also include an epitope tag for detection (Myc). The following inducible chimeric cytokine receptors were tested in this study:
HEK293 cells were transfected with constructs encoding the above inducible chimeric cytokine receptors, and a luciferase reporter for either STAT4 or STAT5. The luciferase reporters (Promega) encoded a luciferase under the control of either a STAT4 or STAT5 responsive element. As HEK293 cells lack STAT4, in wells transfected with the STAT4 reporter, a plasmid encoding constitutively-expressed STAT4 was transfected as well added. Transfected EpoR, GHR, and IL12Rb1+IL12Rb2 (the IL12 receptor) were used as positive controls. The ligand added to inducible chimeric cytokine receptors was AP1903. Epo was added to EpoR transfected cells, Growth Hormone to GHR transfected cells, and IL-12 to IL12 receptor transfected cells

STAT5 [2] = assay: STAT5 signaling by IL7Ra, IL2Rb and IFNAR2 derived cytotail fragments (Example 6, FIG. 11); type: cell-based; settings: EpoR(237-338; L241G, L242P) tyrosine kinase activating domain, short (8 h) AP1903 treatment
Experimental: In this study, IL2Rb, IL7R, and […] cytotails were analyzed to identify tyrosines sufficient for key aspects of signaling. For instance, a segment of IL2Rb containing the STAT5-interacting tyrosines Y418 and Y436 might retain STAT5 signaling, but may lose PI3K signaling as this requires Y364 of the IL2Rb cytotail. Inducible chimeric cytokine receptors comprising the IL7R, IL2Rb, and IFNAR2 tails may include one or more tyrosine motifs within the cytotails. Elimination of one or more portions of the tail (e.g., the IL12Rb2 tail) in some cases results in removal of negative regulatory motifs and stronger signaling.
In this study, signaling by a variety of IL7Ra and IL2Rb derived fragments using the EpoR-based tyrosine kinase activating domain were tested. The following inducible chimeric cytokine receptors were tested in this study:
Constructs that are plotted include tyrosine effector domains derived from the IL7R and IL2Rb cytotails.

CAR-T cells [3] = assay: Live cell count and viability of EGFRvIII CAR-T cells grown with IL2, AP1903 or no treatment (Example 7); type: cell-based, human; settings: for CAR-T cell growth with AP1903 (live cell count) / CAR-T cell viability with AP1903: EGFRvIII CAR-T cells; for CAR-T cell growth with AP1903 (live cell count): 8 days post production, FIG. 16; for CAR-T cell viability with AP1903: FIG. 17
Source text: (§1) In this study, lentiviral (pLVX) constructs were generated comprising an SFFV promoter followed by a kozak sequence, the inducible chimeric cytokine receptor, a T2A sequence, and a chimeric antigen receptor. The chimeric antigen receptor was directed towards cells expressing EGFRvIII. For comparison, lentiviral constructs with either TagBFP or GoCART instead of the inducible chimeric cytokine receptor were used. GoCART consists of a myristoylation sequence followed by a portion of MyD88 and CD40 fused to two repeats of FKBP(F36V).
(§2) The T cells were transduced with lentivirus 2 days after isolation, and 3 days later were FACS sorted by binding APC-labeled EGFRvIII. The sorted EGFRvIII+ cells were cultured until 14 days post isolation.
At day 14, the 0.5e6 cells were resuspended in a 24-well plate, and grown with either IL2, AP1903, or no treatment for 8 days post production.

CAR-T cells [4] = assay: Phenotyping of CAR-T cells at day 8 post production (Example 7); type: cell-based, human; settings: for cell phenotype after growth with AP1903: FIG. 18, FIG. 19
Source text: as §1, §2
At day 8 post production growth with AP1903 or IL2, cells were phenotyped.

CAR-T cells [5] = assay: Cytokine measurement of CAR-T cells on day 2 and day 8 (Example 7); type: cell-based, human; settings: for cytokine release without any treatment: day 2 and 8 post production, FIG. 23, FIG. 24; for autoactivation (cytokine release in the absence of small molecule): no treatment
Source text: as §1, §2
Cytokines were measured on day 2 and day 8. AP1903 data is shown FIG. 20 and FIG. 21. All values were normalized to untreated TagBFP-expressing CAR-T Cells. […] The IFN-related tails do incur some cytokine release.
Induction of cytokines at day 2 and 8 post production without any treatment was measured.

[6] = test system: BCMA(1-54), TACI(1-165) and BAFFR(1-78) ectodomain chimeric cytokine receptors; assay: HEK293T Stat reporter assay of TNFR2 superfamily ectodomain receptors with soluble BAFF trimers (Example 14); type: cell-based; settings: 5 hours post-treatment
Source text: To test if the panel of ligand inducers and ectodomains can be further extended beyond the AP1903-FKBP(F36V) pairing, we tested signaling in response to other multimeric ligand inducers. As the Tumor Necrosis Family (TNF) superfamily of ligands are trimers, they engage their respective receptors in a multimeric fashion. Therefore, we fused ectodomains derived from the TNFR2 superfamily receptors, such as BCMA(1-54), TACI(1-165) and BAFFR(1-78), to the transmembrane and signaling domains of our chimeric cytokine receptors, and tested signaling in response to soluble trimeric ligand. Briefly, 20,000 HEK293T cells were plated into each well of a poly-L-lysine-coated 96-well flat-bottom plate and allowed to adhere overnight. The chimeric cytokine receptor (2.5 ng), a Stat response element that drives Firefly Luciferase (100 ng; Promega) and Renilla Luciferase control reporter vector (1 ng; Promega) were mixed in a final volume of 5 uL in Opti-MEM (Gibco) (“DNA mix”). 0.3 uL Lipofectamine 2000 (Invitrogen) in 5 uL Opti-MEM was incubated at room temperature for 5 minutes and then added to the DNA mix. […] 24 hours after transfection, cells were either left untreated, or treated with soluble BAFF or APRIL trimers diluted in serum-free media, and Stat reporter activity was determined 5 hours post-treatment using the Dual-Glo Luciferase Assay System (Promega). […]

“CD8 SS-Myc-FKBP(F36V)-EpoR(237-508; L241G, L242P)-V5: inducible chimeric cytokine receptor” was tested, and the “STAT5 reporter signaling with ligand” value (STAT5 [1]) was “closest to the EpoR(1-508) positive control; also recorded: robust activity”.

With “CD8 SS-Myc-FKBP(F36V)-GCSFR(614-710)-IL7R(316-459)-IL12Rb2(775-825): inducible chimeric cytokine receptor” the “signaling for STAT4” value (STAT4; AP1903, FIG. 9) was “strongest signaling for STAT4” and the basal signaling (STAT4; FIG. 9) was “had basal signaling”.

“CD8 SS-Myc-FKBP(F36V)-EpoR(237-338; L241G, L242P)-IL12Rb2(775-825): inducible chimeric cytokine receptor” was tested, and the “STAT4 signaling when used as a tyrosine effector domain” value (STAT4; peptide containing Y800, see Examples 3 and 5) was “sufficient to provide STAT4 signaling”.

With “CD8 SS-Myc-FKBP(F36V)-EpoR(237-338; L241G, L242P)-IL2Rb(393-433, 518-551): inducible chimeric cytokine receptor” the “STAT5 signaling of cytotail fragments” value (STAT5 [2]) was “far greater signaling”.

For “CD8 SS-Myc-FKBP(F36V)-EpoR(237-338; L241G, L242P)-IL7R(316-459): inducible chimeric cytokine receptor”, the “CAR-T cell growth with AP1903 (live cell count)” value (“CAR-T cell growth with AP1903” for short) (CAR-T cells [3]) was “robust growth”, the “CAR-T cell viability with AP1903” value (CAR-T cells [3]) was “higher viability with AP1903 comparable to IL2 treatment” and the “cell phenotype after growth with AP1903” value (CAR-T cells [4]) was “more stem cell memory”. The “cytokine release without any treatment” value (CAR-T cells [5]) was “No cytokine release was observed”.

For “BAFF: soluble BAFF trimers, TNF superfamily ligand”, the Stat5 reporter activity ([6]; FIG. 37C) was “induced Stat5 and Stat4 activation” and the Stat4 reporter activity ([6]; FIG. 37D) was “induced Stat5 and Stat4 activation”.

With “CD8 SS-Myc-FKBP(F36V)-EpoR(237-338; L241G, L242P)-IL7R(316-459)-IL12Rb2(775-825): inducible chimeric cytokine receptor” the basal signaling (STAT4; FIG. 9) was “lowest basal signaling”.

In the case of “GoCART: myristoylation sequence followed by a portion of MyD88 and CD40 fused to two repeats of FKBP(F36V); previously reported multimerizer [reference compound]”, the “CAR-T cell growth with AP1903” value (CAR-T cells [3]) is reported as “slight growth”, the “CAR-T cell viability with AP1903” value (CAR-T cells [3]) is reported as “higher viability with AP1903 comparable to IL2 treatment” and the “cell phenotype after growth with AP1903” value (CAR-T cells [4]) is reported as “less stem cell memory and more effector memory”. For the same molecule, the “cell phenotype when grown further with IL2” value (CAR-T cells [4]; IL2) was “somewhat more differentiated”, the “cytokine release without any treatment” value (CAR-T cells [5]) was “GM-CSF, IL5, IL13, IL22, and MIP1a at day 2 and more so at day 8” and the “cytokine release with AP1903” value (CAR-T cells [5]; day 2 and day 8, normalized to untreated TagBFP-expressing CAR-T Cells, FIG. 20, FIG. 21) was “robust cytokine release”. For the same molecule, the “autoactivation (cytokine release in the absence of small molecule)” value (from here on “autoactivation”) (CAR-T cells [5]; day 2 and day 8) was “strongly so”.

With “CD8 SS-Myc-FKBP(F36V)-EpoR(237-338; L241G, L242P)-IL7R(376-416, 424-459; Y456F): inducible chimeric cytokine receptor” the “STAT5 signaling of cytotail fragments” value (STAT5 [2]) was “fully recreated”.

For “CD8 SS-Myc-FKBP(F36V)-EpoR(237-338; L241G, L242P)-IL2Rb(333-551): inducible chimeric cytokine receptor”, the “CAR-T cell growth with AP1903” value (CAR-T cells [3]) was “slight growth”, the “cytokine release without any treatment” value (CAR-T cells [5]) was “release IL13 and some TNFa (day 2, FIG. 23) that diminishes by day 8” and the “autoactivation” value (CAR-T cells [5]; day 2 and day 8) was “mildly autoactivating”.

B1: CD8 SS-Myc-FKBP(F36V)-EpoR(237-338; L241G, L242P)-IFNAR2(310-515): inducible chimeric cytokine receptor (protein)
chain: KKKVWDYNYDDESDSDTEAAPRTSGGGYTMHGLTVRPLGQASATSTESQLIDPESEEEPDLPEVDVELPTMPKDSPQQLELLSGPCERRKSPLQDPFPEEDYSSTEGSGGRITFNVDLNSVFLRVLDDEDSDDLEAPLMLSSHLEEMVDPEDPDNVQSNHLLASGEGTQPTFPSPSSEGLWSEDAPSDQSDTSESDVDLGDGYIMR
In the case of B1, the “CAR-T cell counts on post-production day 5 and day 8” value (CAR-T cells [3]; FIG. 25) is reported as “least growth”, the growth without signaling (CAR-T cells [3]; no treatment, over a week, FIG. 22) is reported as “some less growth” and the IL-2 consumption (CAR-T cells [5]; Day 8 cytokine measurements) is reported as “did not consume as much IL-2”. For the same molecule, the “cytokine release without any treatment” value (CAR-T cells [5]) was “constitutively release small amounts of IL5” and the “autoactivation” value (CAR-T cells [5]; day 2 and day 8) was “mildly autoactivating”.

Source: patent US12163169B2, “Inducible chimeric cytokine receptors” (Allogene Therapeutics, Inc., priority 2018, dated 2024)
